Data published in paper PMC8810880, “Comprehensive characterization and molecular insights into the salt tolerance of a Cu, Zn-superoxide dismutase from an Indian Mangrove, Avicennia marina” (Scientific Reports, 2022).

Target: T1, Am_SOD (recombinant Cu, Zn-superoxide dismutase) (Avicennia marina, UniProt Q9AXH2)
T1 construct: full-length 459 bp ORF in pET22b+ (NdeI/XhoI), 6xHis tag (printed as N-terminal); homodimer ~32-33 kDa, monomer ~16 kDa; no signal peptide found
T1 sequence (Q9AXH2 1-152): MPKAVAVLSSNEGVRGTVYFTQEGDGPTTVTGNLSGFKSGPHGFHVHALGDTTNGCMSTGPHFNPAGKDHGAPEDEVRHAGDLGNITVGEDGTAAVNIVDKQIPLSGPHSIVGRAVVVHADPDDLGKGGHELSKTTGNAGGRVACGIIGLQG
Assay: riboflavin-NBT SOD inhibition assay, A560
Type: biochemical
Excerpt: riboflavin-NBT SOD inhibition assay, A560 on Am_SOD (recombinant Cu, Zn-superoxide dismutase) | inhibited in a dose-dependent manner by sodium diethyldithiocarbamate trihydrate, and the IC50 was obtained at […]

IC50: 1500 µM
Compound: CCN(CC)C(=S)S [DDC, sodium diethyldithiocarbamate trihydrate]
